Results published in patent US12234216B2, “Isotopologues salts, crystalline forms, stereoisomers, of methylone and ethylone and methods of use thereof” (Terran Biosciences Inc., priority 2021, dated 2025).

Assay: Metabolic stability in human liver microsomes
Assay type: in vitro ADME
Conditions: for difference in half-life and intrinsic clearance compared with the corresponding non-deuterated methylone hydrochloride: human liver microsomes; for CLint (μL/min/mg protein): human liver microsomes 0.5 mg/mL, 1 μM compound, NADPH, 0-45 min
Protocol: Pooled liver microsomes are purchased from a reputable commercial supplier. Microsomes are stored at […] prior to use. Microsomes (final protein concentration 0.5 mg/mL), 0.1 M phosphate buffer pH 7.4 and test compound (final substrate concentration 1 μM; final DMSO concentration 0.25%) are preincubated at 37° C. prior to the addition of NADPH (final concentration 1 mM) to initiate the reaction. A minus cofactor control incubation is included for each compound tested where 0.1 M phosphate buffer pH 7.4 is added instead of NADPH (minus NADPH). Two control compounds are included with each species. All incubations are performed singularly for each test compound. Each compound is incubated for 0, 5, 15, 30 and 45 min. The control (minus NADPH) is incubated for 45 min only. The reactions are stopped by transferring incubate into acetonitrile at the appropriate time points, in a 1:3 ratio. The termination plates are centrifuged at 3,000 rpm for 20 min at 4° C. to precipitate the protein.
From a plot of ln peak area ratio (compound peak area/internal standard peak area) against time, the gradient of the line is determined. Subsequently, half-life and intrinsic clearance are calculated using the equations below: Elimination rate constant (k)=(−gradient) Half-life (t½)(min)=0.693/k Intrinsic clearance (CLint)(μL/min/mg protein)=V×0.693/t½ where V=Incubation volume (μL)/Microsomal protein (mg)
Relevant control compounds were assessed, ensuring intrinsic clearance values fall within the specified limits (if available).

SMILES | difference in half-life and intrinsic clearance compared with the corresponding non-deuterated methylone hydrochloride | CLint (μL/min/mg protein)
Cl.[2H]C([2H])([2H])N[C@H](C)C(=O)c1ccc2c(c1)OC([2H])([2H])O2 [(R)-Methylone-d5 hydrochloride, (R)-1-(benzo[d][1,3]dioxol-5-yl-2,2-d2)-2-((methyl-d3)amino)propan-1-one HCl] | most significant difference in half-life and intrinsic clearance | 6.27 μL/min/mg protein
Cl.[2H]C([2H])([2H])NC(C)C(=O)c1ccc2c(c1)OCO2 (racemic) [(rac)-Methylone-d3 hydrochloride, 1-(benzo[d][1,3]dioxol-5-yl)-2-((methyl-d3)amino)propan-1-one HCl] | differences in half-life and intrinsic clearance | –
Cl.[2H]C([2H])([2H])N[C@@H](C)C(=O)c1ccc2c(c1)OCO2 [(S)-Methylone-d3 hydrochloride, (S)-1-(benzo[d][1,3]dioxol-5-yl)-2-((methyl-d3)amino)propan-1-one HCl] | differences in half-life and intrinsic clearance | 9.60 μL/min/mg protein
Cl.[2H]C([2H])([2H])NC(C)C(=O)c1ccc2c(c1)OC([2H])([2H])O2 (racemic) [(rac)-Methylone-d5 hydrochloride, 1-(benzo[d][1,3]dioxol-5-yl-2,2-d2)-2-((methyl-d3)amino)propan-1-one HCl] | most significant difference in half-life and intrinsic clearance | –
Cl.[2H]C([2H])([2H])N[C@H](C)C(=O)c1ccc2c(c1)OCO2 [(R)-Methylone-d3 hydrochloride, (R)-1-(benzo[d][1,3]dioxol-5-yl)-2-((methyl-d3)amino)propan-1-one HCl] | differences in half-life and intrinsic clearance | –
Cl.[2H]C1([2H])Oc2ccc(C(=O)[C@H](C)NC)cc2O1 [(S)-Methylone-d2 hydrochloride, (S)-1-(benzo[d][1,3]dioxol-5-yl-2,2-d2)-2-(methylamino)propan-1-one hydrochloride] | differences in half-life and intrinsic clearance | –
Cl.[2H]C1([2H])Oc2ccc(C(=O)C(C)NC)cc2O1 (racemic) [(rac)-Methylone-d2 hydrochloride, 1-(benzo[d][1,3]dioxol-5-yl-2,2-d2)-2-((methyl)amino)propan-1-one HCl] | differences in half-life and intrinsic clearance | –
